According to patent US20230285372A1, “Pharmaceutical use of (E)-3-arylheterocyclylprop-2-enoic acid derivatives” (MEDCURIUS INC., priority 2020, published 2023):
Where a name gives a salt, the structure may show the parent alone. Read-outs that look alike come from different tables or passages of the source.

Key:
[1] = system: Nrf2; test: Nrf2 protein level in the nucleus of HT-22 cells, Western Blot; type: cell-based, mouse; details: 1.25 μM and 0.625 μM, 24 hours, vs control group
Text: (§1) As a transcription factor, Nrf2 needs to enter the nucleus and combine with ARE sequence to play a role in transcriptional activation. Therefore, Nrf2 protein level in the nucleus is an important prerequisite for the activation of Nrf2 signaling pathway. NQO-1 and HO-1 are target genes regulated by Nrf2, and the increase of their protein levels is an important sign of activation of the Nrf2 signaling pathway.
(§2) HT-22 cells in logarithmic growth phase were selected, the culture medium was discarded, the cells were digested with 0.25% Trypsin containing EDTA, and cell suspension was made. Cell density was adjusted to 50000/ml with DMEM/F12 medium (containing 10% FBS and 1% double antibody) and it was inoculated to 6-well plate, with 2000 μL/well, the number of cells per well was 100, 000, and the cells were cultured in a cell incubator at 37° C. in an atmosphere containing 5% CO2 for 24 hours. Then, the medium of each well was replaced with new 1980 μL DMEM/F12 medium. […] After 24 hours, the cells were collected, nuclear protein and cytoplasmic protein were extracted, and the level of Nrf2 in the nucleus and the expression of NQO-1 and HO-1 in cytoplasm were detected by Western Blot.

[2] = system: NQO-1; test: NQO-1 expression in HT-22 cytoplasm, Western Blot; type: cell-based, mouse; details: HT-22 cells, 1.25 μM and 0.625 μM, 24 hours, vs control group
Text: as §1, §2

[3] = system: HO-1; test: HO-1 expression in HT-22 cytoplasm, Western Blot; type: cell-based, mouse; details: HT-22 cells, 1.25 μM and 0.625 μM, 24 hours, vs control group
Text: as §1, §2

[4] = system: HT-22 cells; test: Protective effect on HT-22 cell damage caused by L-glutamate monosodium salt; type: cell-based, mouse; details: Mus musculus, HT-22, 24 h, 15 mM L-glutamate, 24 hours
Procedure: (§3) Well-proliferated HT-22 cells, derived from mouse hippocampal neuronal cells in logarithmic growth phase, were selected, and they were counted after being subjected to trypsin digestion and dispersion. The cell density was adjusted with DMEM/F12 medium (containing 10% FBS and 1% double antibody). The cells were then inoculated in a 96-well plate at a density of 2,000 cells per well, and cultured in a cell incubator at 37° C. in atmosphere containing 5% CO2 for 24 hours. For the control group and the L-glutamate monosodium salt group (model group), serum-free DMEM/F12 medium was added, and the other wells were added with tested compounds of different concentrations; except that the serum-free DMEM/F12 medium was added to the control group. L-glutamate monosodium salt solution at the final concentration of 15 mM was added to the remaining wells. After 24 hours, the cell viability was detected with a luminescent cell viability assay kit.
as §3, with “group,” for “group.”
as §3, with “2.000” for “2,000”, “group,” for “group.”

[5] = system: α-synuclein protein; test: α-synuclein protein level in midbrain, Western blot, MPTP mouse; type: in vivo; details: L-DOPA 10 mg/kg; p>0.05
Text: (§4) The core pathological change of Parkinson's disease is the loss of dopaminergic neurons. Tyrosine hydroxylase (TH), the rate-limiting enzyme in dopamine synthesis, is the landmark protein of the dopaminergic neurons. Therefore, the decrease in its level indicates the loss of the dopaminergic neurons. A key protein for the occurrence and development of Parkinson's disease is α-synuclein protein, and the abnormal modification (hyperphosphorylation) of this protein can inhibit microtubule polymerization, enhance oxidative stress, and thus accelerate the death of the dopaminergic neurons.
Male C57 mouse were screened for their motor function by a mouse rod-rotating test, and unqualified ones were excluded from the test. […] MPTP was injected subcutaneously every 4 days in the model group and the drug administration group with a dosage of 25 mg/kg for 40 consecutive days. Each group of I-5 was administered once a day at 8:00 am and 8:00 pm (by intragastric administration), twice in total. […]
Tissues from all the animals were collected on the second day after the end of the behavioral experiment. […] The level of tyrosine hydroxylase (TH), a marker protein of dopaminergic neurons, was detected by immumohistochemistry, and α-synuclein protein level and phosphorylation level of the protein were detected by Western blot.

[6] = system: MPTP-induced Parkinson's disease mouse; test: Pole-climbing test, MPTP-induced Parkinson's disease mouse; type: in vivo; details: L-DOPA 10 mg/kg qd intragastric, 40 days; vs model group, p<0.0001
Procedure: (§5) Male C57 mouse were screened for their motor function by a mouse rod-rotating test, and unqualified ones were excluded from the test. […] MPTP was injected subcutaneously every 4 days in the model group and the drug administration group with a dosage of 25 mg/kg for 40 consecutive days. Each group of I-5 was administered once a day at 8:00 am and 8:00 pm (by intragastric administration), twice in total. […] The intragastric volume was 0.1 ml/10 g body weight, and the behavior test was started 40 days later. […] The storage time of the prepared liquid medicine was not more than 24 hours.
A climbing pole in the pole-climbing test was a rough wooden pole with a diameter of 2 cm and a length of 50 cm. The bottom of the wooden pole was located in the mouse home cage and was vertically oriented. When the mouse was placed on top of the wooden pole, it would naturally descend to the bottom of the wooden pole and reach the base of the pole. […] The mouse should have a pre-acclimation period of 2 days prior to the test, training five times a day. To the test day, the time required for the […] to reach the bottom (incubation period) was taken as an evaluation index to observe the effect of the tested compound on the motion ability of the mouse.

[7] = system: MPTP-induced Parkinson's disease mouse; test: Rotarod test, MPTP-induced Parkinson's disease mouse; type: in vivo; details: L-DOPA 10 mg/kg qd; vs model group, p<0.0001
Procedure: as §5
On the first day, the mouse acclimated to a rotating speed of 5 rpm for two times, each time for 5 minutes. On the second day, the rotarod turned at a speed of 10 rpm, the mouse acclimated to the speed for two times, each time for 5 minutes. On the third day, the rotarod turned at a speed of 15 rpm, the mouse acclimated to the speed for two times, each time for 3 minutes. On the fourth day, a behavioral test was started. The rotarod turned at a speed of 15 rpm for a period of 3 minutes. The time mouse spent on the rotarod (fall latency) was taken as an index for evaluation of their motor coordination. The test was repeated three times for each animal, with an interval of 30 minutes to eliminate the interference of exercise fatigue on the motion ability of animals.

[8] = system: p-synuclein; test: Phosphorylated α-synuclein (p-synuclein) level in midbrain, Western blot, MPTP mouse; type: in vivo; details: L-DOPA 10 mg/kg; p>0.05
Text: as §4, §5
Tissues from all the animals were collected on the second day after the end of the behavioral experiment. Hearts from six animals in each group were perfused and fixed with paraformaldehyde for pathological analysis of paraffin sections. Brain tissue of the remaining animals was separated on ice, and brain areas (midbrain) related to Parkinson's disease were collected. After being frozen with liquid nitrogen, they were stored in a refrigerator at −80° C. for protein analysis. The level of tyrosine hydroxylase (TH), a marker protein of dopaminergic neurons, was detected by immumohistochemistry, and α-synuclein protein level and phosphorylation level of the protein were detected by Western blot.

## COC(=O)/C=C/C(=O)OC [DMF, dimethyl fumarate, reference compound]
[1]
  protein level of Nrf2 in the nucleus: no statistical difference
[2]
  protein level of NQO-1: no statistical difference
[3]
  protein level of HO-1: no statistical difference
[4]; Table 1, Conc 0.078 μm, L-Glu alone 27.73 (I-5 32.92), read-out: cell viability
  viability at 0.078 µM: 37.6%
[4]; Table 1, Conc 0.156 μm, L-Glu alone 27.73 (I-5 32.92), read-out: cell viability
  viability at 0.156 µM: 47.5%
[4]; Table 1, Conc 0.313 μm, L-Glu alone 27.73 (I-5 32.92), read-out: cell viability
  viability at 0.313 µM: 52.8%
[4]; Table 1, Conc 0.625 μm, L-Glu alone 27.73 (I-5 32.92), read-out: cell viability
  viability at 0.625 µM: 60%
[4]; Table 1, Conc 1.25 μm, L-Glu alone 27.73 (I-5 32.92), read-out: cell viability
  viability at 1.25 µM: 53.3%
[4]; Table 1, Conc 2.5 μm, L-Glu alone 27.73 (I-5 32.92), read-out: cell viability
  viability at 2.5 µM: 63.6%
[4]; Table 1, Conc 10 μm, L-Glu alone 27.73 (I-5 32.92), read-out: cell viability
  viability at 10 µM: 70.2%
[4]; Table 2, Conc 0.078 μM, L-Glu alone 27.83, read-out: Visibility %
  viability at 0.078 µM: 34.3%
[4]; Table 2, Conc 0.156 μM, L-Glu alone 27.83, read-out: Visibility %
  viability at 0.156 µM: 34.9%

## N[C@@H](Cc1ccc(O)c(O)c1)C(=O)O [L-DOPA, levodopa, reference compound]
[5]
  α-synuclein protein level in the midbrain: no significant effect
[6]
  latency of mouse reaching the base of the pole: significantly shorten the latency
[7]
  fall latency in the Rotarod test: significantly prolonged
[8]
  p-synuclein protein level in the midbrain: no significant effect
